Tests used:
[1] = test system: A549 cells; assay: Comet assay; type: cell-based, human; settings: A549, 1, 8, and 12 h
Experimental: Residual DNA damage was detected by alkaline single cell gel electrophoresis (Comet Assay) using the Trevigen Comet Assay Kit (Trevigen, Gaithersburg, MD, USA) following the manufacturer’s protocol with slight modifications. […] The treated cells were trypsinized and pelleted by centrifugation. The cell pellets were washed and resuspended in 2 mL of ice-cold PBS. The cell suspension was mixed 1:10 (vol/vol) with low-melting point agar at 42 °C and immediately pipetted onto a CometSlide™. Slides were incubated at 4 °C in the dark for 30 min, immersed in chilled lysis solution and incubated again at 4 °C for 30 min. Slides were placed in a horizontal electrophoresis chamber and electrophoresed with buffer NaOH (0.3 M) and EDTA (1 mM) at 1 V/cm for 15 min. Samples were dried and stained with Vista Green DNA dye (Cell Biolabs, Singapore). Comet tails were imaged using a model DM 2500 fluorescent microscope (Leica, Wetzlar, Germany) and quantified by Komet 5.5 software (Andor Technology, Belfast, UK). A minimum of 50 cells were scored per treatment. All experiments were performed independently in triplicate.

[2] = test system: WI-38: human lung fibroblast cell lines; assay: WST-1 cell viability, WI-38; type: cell-based; settings: WI-38, non-cancer cell line
Description: (§1) Different cells were utilized as follows: MEF: murine embryonic fibroblast (RRID: CVCL_L690); AML12: mouse liver cell lines (RRID: CVCL_0140); WI-38: human lung fibroblast cell lines (RRID: CVCL_0579); THLE-2: human liver epithelial cell lines (RRID: CVCL_3803); A549: human lung cancer cell lines (RRID: CVCL_0023); HEPG2: human liver cancer cell lines (RRID: CVCL_0027); HEP3B: human hepatoma cell lines (RRID: CVCL_0326); BxPC3: human pancreatic cancer cell lines (RRID: CVCL_0186); U87: human primary glioblastoma cell lines (RRID: CVCL_0022); DU145: human prostate cancer cell lines (RRID: CVCL_0105); MCF7: human breast cancer cell lines (RRID: CVCL_0031); HeLa: human cervical cancer cell lines (RRID: CVCL_0030); HCT116: human colon cancer cell lines (RRID: CVCL_0291). Cells were maintained in Dulbecco’s modified Eagle’s medium (DMEM, Gibco) supplemented with L-glutamine (Lonza) (2 mM), 10% fetal bovine serum (FBS, Hyclone), 1 × non-essential amino acids, and sodium pyruvate (1 mM). THLE-2 cells were maintained in THLE-2 Cell Complete Medium (Zhong Qiao Xin Zhou, Shanghai, China). Cells were incubated at 37 °C in a humidified incubator with 5% CO2. […]
(§2) Cell viability was assessed using the WST-1 assay, based on a previously reported method with slight modifications. […] Absorbance at OD450 was measured using a microplate reader (Synergy H1; BioTek Instruments, Winooski, VT, USA).

[3] = test system: A549 cells; assay: Mitochondria JC-1 staining (mitochondrial membrane potential); type: cell-based, human; settings: A549, 25 μM, red fluorescence decreasing within 2–3 h, lowest by 4 h
Experimental: Mitochondrial membrane potential and mitochondria localization were assessed by JC-1 and MitoTracker staining based on previously published methods. A549 cells were cultured at 37 °C and 5% CO2 in Dulbecco’s modified Eagle’s medium (DMEM), supplemented with 10% heat-inactivated FBS (Thermo Fisher Scientific, Waltham, MA, USA) and L-Glutamine (Thermo Fisher Scientific, Waltham, MA, USA) (2 mM). An aliquot of 1 mL of JH62 (25 μM) solution was added to the cell cultures. […] Cells were washed with dilution buffer, and photos were taken using a microscope. For MitoTracker staining, cells grown on 12 mm diameter round glass coverslips in 24-well plates were incubated with MitoTracker Red diluted 1:2000 or 1:20,000 from a stock solution (1 mM) in culture medium for 45 min at 37 °C. Cells were then washed with PBS and fixed with ice-cold 3.2% paraformaldehyde in PBS for 20 min at room temperature. After washing, coverslips were mounted on glass slides using an appropriate mounting medium. […]
In cancer cells, mitochondria serve as central organelles for energy production and survival, critically influencing cell viability, immune evasion, tumor progression, and therapy resistance. […] We used the potential-sensitive fluorescent probe JC-1, which emits green fluorescence as a monomer at low concentrations and forms red-fluorescent aggregates in mitochondria with intact ΔΨm.

[4] = test system: A549: human lung cancer cell lines; assay: WST-1 cell viability, A549; type: cell-based; settings: for IC50: WST-1; for reduced viability: 24 h
Description: Different cells were utilized as follows: MEF: murine embryonic fibroblast (RRID: CVCL_L690); AML12: mouse liver cell lines (RRID: CVCL_0140); WI-38: human lung fibroblast cell lines (RRID: CVCL_0579); THLE-2: human liver epithelial cell lines (RRID: CVCL_3803); A549: human lung cancer cell lines (RRID: CVCL_0023); HEPG2: human liver cancer cell lines (RRID: CVCL_0027); HEP3B: human hepatoma cell lines (RRID: CVCL_0326); BxPC3: human pancreatic cancer cell lines (RRID: CVCL_0186); U87: human primary glioblastoma cell lines (RRID: CVCL_0022); DU145: human prostate cancer cell lines (RRID: CVCL_0105); MCF7: human breast cancer cell lines (RRID: CVCL_0031); HeLa: human cervical cancer cell lines (RRID: CVCL_0030); HCT116: human colon cancer cell lines (RRID: CVCL_0291). Cells were maintained in Dulbecco’s modified Eagle’s medium (DMEM, Gibco) supplemented with L-glutamine (Lonza) (2 mM), 10% fetal bovine serum (FBS, Hyclone), 1 × non-essential amino acids, and sodium pyruvate (1 mM). THLE-2 cells were maintained in THLE-2 Cell Complete Medium (Zhong Qiao Xin Zhou, Shanghai, China). Cells were incubated at 37 °C in a humidified incubator with 5% CO2. A549 cells were previously stored in the lab and other cell lines were a gift from Haishan Wang’s lab (Institute of Molecular and Cell Biology, Singapore). All cell lines were confirmed to be contamination-free.
(§3) Cell viability was assessed using the WST-1 assay, based on a previously reported method with slight modifications. Briefly, cells were seeded at 1 × 10^4 cells per well in 96-well plates and then treated with different doses of JH62 or DOX for 0–72 h. The cells used included non-cancer cells (MEF, AML12, WI-38, and THLE-2) and cancer cells (A549, HEPG2, HEP3B, BxPC3, U87, DU145, MCF7, HeLa, and HCT116). The WST-1 reagent (Roche, Shanghai, China) was added to each well (10% vol/vol final concentration), followed by incubation for 3 h at 37 °C. Absorbance at OD450 was measured using a microplate reader (Synergy H1; BioTek Instruments, Winooski, VT, USA).

[5] = test system: A549 cells; assay: DNA fragmentation analysis (genomic DNA electrophoresis); type: cell-based, human; settings: A549, 24 h; JH62 5–100 µM, DOX 1 and 5 μM
Experimental: Genomic DNA fragmentation was analyzed by agarose gel electrophoresis using previously described methods. A549 cells were seeded in 6 cm tissue culture dishes and cultured overnight. Before treatment with JH62 or DOX, the cells were cultured in DMEM lacking FBS for 16 h. After treatment, the cells were then washed three times with PBS and genomic DNA was extracted using a MasterPure™ DNA Purification Kit (Lucigen Corporation, Middleton, WI, USA). The DNA pellet was airdried and resuspended in Tris-HCl (pH 8.0, 10 mM). DNA samples (2.5 μg) were separated by 1% agarose gel electrophoresis in TAE buffer containing ethidium bromide.

[6] = test system: MEF: murine embryonic fibroblast; assay: WST-1 cell viability, MEF; type: cell-based; settings: Mus musculus, non-cancer cell line
Description: as §1, §2

[7] = test system: U87: human primary glioblastoma cell lines; assay: WST-1 cell viability, U87; type: cell-based; settings: U87 (glioblastoma) cancer cell line
Description: as §1, §2

[8] = test system: non-cancer cells (MEF, AML12, WI-38, and THLE-2); assay: WST-1 cell viability, panel of non-cancer cells; type: cell-based; settings: across non-cancer cells (MEF, AML12, WI-38, and THLE-2)
Experimental: as §3

## CCCCCCCC/C=C/CCCc1cc(=O)c2ccccc2[nH]1 [JH62, E-2-(tridec-4-en-1-yl)-quinolin-4(1H)-one]
[1]
  comet tail analysis: maintenance of DNA integrity
[2]
  IC50: 44.1 ± 0.4 µM
[3]
  mitochondrial membrane potential (JC-1 red fluorescence): disrupted the mitochondrial membrane potential
[4]; A549 (lung) cancer cell line
  IC50: 14.8 ± 0.1 µM
[4]; A549, 12.5 μM
  reduced viability: 20%
[4]; A549, 12.5 μM, 32 h
  viability decreased: 32%
[4]; A549, 12.5 μM, 48 h
  viability decreased: 19%
[4]; A549, 25 μM
  reduced viability: 48%
[4]; A549, 25 μM, 32 h
  viability decreased: 65%
[4]; A549, 25 μM, 48 h
  viability decreased: 74%
[4]; A549, 50 μM
  reduced viability: 78%
[4]; A549, 50 μM, 32 h
  viability decreased: 84%
[4]; A549, 50 μM, 48 h
  viability decreased: 92%
[4]; Homo sapiens, A549, A549 (lung) cancer cell line
  IC50: 15 µM
[5]
  genomic DNA integrity (electrophoresis): genomic DNA integrity remained unchanged
[6]
  IC50: 47.2 ± 4.8 µM
[7]
  IC50: 10 ± 0.2 µM
[8]
  IC50: > 25 µM
